Entries after “also recorded” stand apart in the source; their conditions may differ.
Legend:
ARPE-19 cells [1] = assay: ELISA of secreted VEGF, IL-6, IL-8 in conditioned medium; format: cell-based; settings: 6 μM 7KCh alone or with 1 μM fatty acid, 48 hr
Procedure: FIGS. 16A-16E depict the secreted protein levels of (A) VEGF, (B) IL-6, and (C) IL-8 were measure by ELISA 48 hr after treatment with 6 μM 7KCh, 1 μM sterculic acid, 1 μM stearic acid, or the combinations of 7KCh with either sterculic acid or stearic acid. Error bars indicate the standard deviations. *p<0.05 comparing to 7KCh, n=3. Two-tailed Student's t-test. The expressions of GRP78 and CHOP were shown by immunoblots (D) 24 hr or (E) 48 hr after treatment with 8 μM 7KCh, 1 μM sterculic acid, 1 μM stearic acid, or the combinations of 7KCh with either sterculic acid or stearic acid.
(§1) ARPE-19 cells were seeded in 24-well plates with 1×10^5 cells per well and allowed to recover for 16-24 hr. Once confluency reached approximately 90%, the effect of the fatty acids against 7KCh-mediated cell death was examined 24 hr after incubation in serum-free medium with 12 μM 7KCh. Fatty acids were tested at 0.1, 0.5, 1, 5 and 10 μM concentrations. The effects of the fatty acids against 7KCh-mediated inflammation and ER stress were examined by incubating cells in 1 μM fatty acids with either 8 μM 7KCh (24 hr for quantitative real-time PCR (qRT-PCR), 24 and 48 hr for immunoblot), or 6 μM 7KCh for 48 hr (for ELISA). Three individual experiments were performed for each treatment with quadruplicate measurements performed for each experiment in 24-well plates.
The levels of secreted VEGF, IL-6, IL-8, and TNF-α in conditioned medium of ARPE-19 cell cultures were measured 48 hr after treatments of 6 μM 7KCh and 1 μM fatty acids using the Quantkine ELISA kits from R&D systems (Minneapolis, Minn.). The protein levels were measured in triplicates. The ELISA results were quantified using an Envision multilable plate reader (PerkinElmer, Covina, Calif.) and presented in percentage relative to the vehicle-only control.

ARPE19 cells [2] = assay: Cell Counting Kit-8 viability assay, 15 μM 7KCh-induced cytotoxicity
Procedure: 4×10^4 cells were seeded onto wells of a 96 well plate. […] Cell viability was determined as celluar dehydrogenase activity and expressed as the percentage of compound treated cells relative to that of untreated controls. error bar: standard deviation, n=4.
The kit allows sensitive colorimetric assays for the determination of the number of viable cells in cell proliferation and cytotoxicity assays. The amount of the formazan dye generated by the activity of dehydrogenases in cells is directly proportional to the number of living cells.
1) Cells were cultivated in a 96 well cell plate (Costar#3599, Corning Incorp, Corning, N.Y.).
2) The cell suspension (40,000 cells/100 μL) were added to 100 μL culture media per well and stood for 15 min at room temperature and cultured at 37° C. in a humidified 5% CO2 atmosphere.
3) Approximately 19 hr after seeding, when the cells were fully confluent, the cells were treated with either DMSO or 1 μM fatty acid in 200 μL of serum free media and subsequently added with 15 μM 7KCh in HPBCD. Then, the plate was swirled for mixing. The cells were also treated with DMSO and HPBCD, which served as vehicle control. The final DMSO and HPBCD concentrations in the media were in the range of 0.1% and 0.0675%, respectively.
Cell viability was expressed as the percentage of compound treated cells relative to that of untreated controls. Prior to measure cell viability, the cells were imaged live by Nikon TE 2000-U inverted fluorescent microscope.

[3] = tested on: stearoyl-CoA desaturase (SCD); assay: SCD mRNA expression (qRT-PCR); format: cell-based; settings: 4 μM 7KCh, 24 hr
Procedure: FIGS. 18A and 18B depict (A) Dose response of SCD mRNA inductions by 0-12 μM 7KCh after 24 hr treatments. (B) The mRNA expressions of SCD in response to 8 μM 7KCh, 1 μM sterculic acid, 1 μM stearic acid, or the combinations of 7KCh with either sterculic acid or stearic acid. Error bars indicate the standard deviations. n=4.
(§2) The RNA was extracted using RNeasy Mini Kit (Qiagen, Valencia, Calif.). The reverse transcription was performed with reagents and kits from Invitrogen. Quantification of mRNA expression was performed using the Taqman gene expression assays and the following primers (VEGFa, Hs00173626_m1; IL-1β, Hs01555413_m1; IL-6, Hs00174131_m1; IL-8, Hs00174103_m1; IκBα, Hs00153283_m1; GRP78, Hs99999174_m1; CHOP, Hs01090850_m1; NOX2, Hs00166163_m1; NOX4, Hs01558199_m1; SCD, Hs00748952 s1; TNF-α, Hs00174128_m1; TGF-β1, Hs00998133_m1; GAPD, 4352934e). GAPD expression was used as an endogenous standard. All qRT-PCR experiments were measured in triplicates in an ABI 7500 Real-Time PCR Instrument (Applied Biosystems, Foster City, Calif.). The results of each treatment were normalized and presented in percentage relative to the vehicle-only control.
To determine the effect of 7KCh on SCD expression ARPE-19 cells were incubated with 4 μM 7KCh for 24 hr. 7KCh suppressed SCD mRNA expression by approximately 60-70% (FIG. 18A). […] Treatment of the cells with 8 μM 7KCh and 1 μM sterculic acid further suppress SCD expression to 86% (FIG. 18B). […] This is the only instance where 7KCh and sterculic acid worked synergistically rather than antagonistically.

[4] = 7-ketocholesterol-mediated cytotoxicity, 24-well CCK-8 viability; settings: human
ARPE-19 cells [5] = assay: qRT-PCR of inflammatory cytokines and ER stress markers, 7KCh-mediated inflammation; format: cell-based
Procedure: FIGS. 13A-13D depict mRNA expressions of (A) VEGF, (B) IL-6, (C) GRP78, and (D) CHOP in response to 8 μM 7KCh with or without 1 μM long-chain fatty acids. Error bars indicate the standard deviations. *p<0.05 comparing to 7KCh, n=3. Two-tailed Student's t-test.
(§3) FIGS. 14A-14D depict mRNA expressions of (A) VEGF, (B) IL-1b, (C) IL-6, and (D) IL-8 in response to 8 μM 7KCh, 1 μM sterculic acid, 1 μM stearic acid, or the combinations of 7KCh with either sterculic acid or stearic acid. Error bars indicate the standard deviations. *p<0.05 comparing to 7KCh, n=4. Two-tailed Student's t-test.
as §3, with “15A-15D” for “14A-14D”, “TNF-α,” for “VEGF,”, “TGF-β1,” for “IL-1b,”, “GRP78,” for “IL-6,”, “CHOP” for “IL-8”, “n=3-4.” for “n=4.”
as §1, §2

ARPE19 cells [6] = assay: CellTiter-Glo luminescent cell viability assay, 15 μM 7KCh-induced cytotoxicity; format: cell-based, human; settings: 24 hr, CellTiter-Glo
Procedure: Error bar: standard deviation, n=4.
CellTiter-Glo® Luminescent Cell Viability Assay is a homogeneous method of determining the number of viable cells in culture based on quantitation of the ATP (luminescent signal) present, an indicator of metabolically active cells.
The contents in a plate were mixed for 2 min on an orbital shaker to induce cell lysis.
5) The plate was allowed to incubate at room temperature for 10 min to stabilize luminescent signal.

ARPE19 cells [7] = assay: Microelectronic cell sensor assay (RT-CES), 7KCh-induced cytotoxicity; settings: 1 μM fatty acid + 15 μM 7KCh, serum free media
Procedure: 4×10^4 cells were seeded onto wells of 16× microtiter plates. […] Cell viability was determined as a cell index (CI) calculated from the impedance of each well automatically by the RT-CES system once per hr until the end of the experiment. The data was normalized at the point immediately prior to compound treatment.
RT-CES® System is a cell-based assay system that monitors cellular events by measuring the electronic impedance of sensor electrodes integrated on the bottom of microtiter E-Plates. The presence of the cells will lead to an increase in the electrode impedance. The more cells attached to the sensor, the higher the impedance that could be monitored with RT-CES.
1) Cells were cultivated in the ACEA's 16X E-plate device containing microelectrodes at the bottom of each well to measure contact area and electrical properties of adherent cells. […]
4) Cell growth was monitored periodically (every 1 hr) for indicated durations via calculation of a “cell index” (reflect to the surface area covered by the cells) in each well. […]
6) The sensor devices were put into the incubator again and the cells were continuously monitored cellular status changes.
7) Cell viability was determined as a cell index (CI) calculated from the impedance of each well automatically by the RT-CES system once per hr until the end of the experiment. […]

ARPE19 cells [8] = assay: Phase-contrast images of cells after co-treatment with 15 μM 7KCh; format: cell-based, human; settings: 1 μM fatty acid + 15 μM 7KCh, 24 hr
Text: FIG. 8 depicts phase-contrast images of ARPE19 cells at 24 hr after sterculic acid co-treatment with 7KCh.

ARPE19 cells [9] = assay: 7-ketocholesterol-mediated cytotoxicity, 24-well CCK-8 viability and images; settings: 24 hr
D407 cells = assay: 7-ketocholesterol-mediated cytotoxicity, 24-well CCK-8 viability; settings: 5 μM co-treatment with 11 μM 7KCh, 24 hr
ARPE-19 cells [10] = assay: Fatty acids against 7KCh-mediated cell death (CCK8); format: cell-based; settings: 12 μM 7KCh for 24 hr; tested 0.1, 0.5, 1, 5 and 10 μM
Procedure: FIGS. 12A-12C depict ARPE-19 cell viability in response to 12 μM 7KCh with or without 0.1-5 μM (A) sterculic acid and (B) stearic acid after 24 hr treatments. Error bars indicate the standard deviations. n=3-5. Two-tailed Student's t-test. (C) Representative images of changes in cell morphology in response to 12 μM 7KCh with or without 1 μM sterculic acid and stearic acid after 24 hr treatments.
as §1
The cell viability was determined by the dehydrogenase activity of the ARPE-19 cells using Cell Counting Kit-8 (CCK8, Dojindo, Gaithersburg, Md.) according to manufacturer's protocol.
The lowest effective concentrations of fatty acids that offset the 7KCh-mediated cell death were determined. […] Table 3 lists the lowest concentrations of these fatty acids required to maintain full cell viability against 12 μM 7KCh treatment. All unsaturated fatty acids protected against 7KCh-induced cell death. […] DHA, α-linolenic, and linoleic acid prevented 7KCh-mediated cell death at 5 μM but the rest of unsaturated fatty acids and dihydrosterculic acid required 10 μM to be protective.

Structure (SMILES): CC(C)CCC[C@@H](C)[C@H]1CC[C@H]2[C@@H]3C(=O)C=C4C[C@@H](O)CC[C@]4(C)[C@H]3CC[C@]12C [7KCh, 7-Ketocholesterol]
- secreted IL-6 protein expression (ARPE-19 cells [1]): 1.8 fold
- secreted IL-8 protein expression (ARPE-19 cells [1]): 1.7 fold
- secreted VEGF protein expression (ARPE-19 cells [1]): 1.6 fold
- loss in cell viability (ARPE19 cells [2]; 15 μM 7KCh, 24 hr, CCK-8): 50-60%
- suppression of SCD mRNA expression [3]: 60-70%
- CC50 at 24 h [4]: 11 µM
- VEGF mRNA expression (ARPE-19 cells [5]; 8 μM 7KCh alone or with 1 μM fatty acid, 24 hr, FIG. 13A): 4 fold
- IL-6 mRNA expression (ARPE-19 cells [5]; 8 μM 7KCh alone or with 1 μM fatty acid, 24 hr, FIG. 13B): 22 fold
- GRP78 mRNA expression (ARPE-19 cells [5]; 8 μM 7KCh alone or with 1 μM fatty acid, 24 hr, FIG. 13C): 4 fold
- CHOP mRNA expression (ARPE-19 cells [5]; 8 μM 7KCh alone or with 1 μM fatty acid, 24 hr, FIG. 13D): 15 fold
- induction of VEGF mRNA (ARPE-19 cells [5]; 8 μM 7KCh alone or with 1 μM fatty acid, FIG. 14A): 5.5 fold
- induction of IL-1β mRNA (ARPE-19 cells [5]; 8 μM 7KCh alone or with 1 μM fatty acid, FIG. 14B): 6.7 fold
- induction of IL-6 mRNA (ARPE-19 cells [5]; 8 μM 7KCh alone or with 1 μM fatty acid, FIG. 14C): 21 fold
- induction of IL-8 mRNA (ARPE-19 cells [5]; 8 μM 7KCh alone or with 1 μM fatty acid, FIG. 14D): 4.7 fold
- induction of TNF-α mRNA (ARPE-19 cells [5]; 8 μM 7KCh alone or with 1 μM fatty acid, FIG. 15A): 2.7 fold
- induction of TGF-β1 mRNA (ARPE-19 cells [5]; 8 μM 7KCh alone or with 1 μM fatty acid, FIG. 15B): 1.3 fold
- induction of GRP78 mRNA (ARPE-19 cells [5]; 8 μM 7KCh alone or with 1 μM fatty acid, FIG. 15C): 5.4 fold
- induction of CHOP mRNA (ARPE-19 cells [5]; 8 μM 7KCh alone or with 1 μM fatty acid, FIG. 15D): 12 fold
- loss in cell viability (ARPE19 cells [6]; 15 μM 7KCh): 40-50%

Structure (SMILES): CCCCCCCC/C=C\CCCCCCCC(=O)O [oleic acid]
- protection from 7KCh induced cytotoxicity (cell index) (ARPE19 cells [7]): slight protective effect
- protective effect against cytotoxicity by 7KCh (summary of the viability assays) (ARPE19 cells [2]; 1 μM fatty acid + 15 μM 7KCh): slight protective effect
- increase of cell viability compared to 7KCh alone treatment (ARPE19 cells [2]; 1 μM fatty acid + 15 μM 7KCh, 24 hr, CCK-8): 10%
- cell morphological changes compared to 7KCh alone (ARPE19 cells [8]): more cells compared to 7KCh alone
- protection of cell confluency and morphology (images) (ARPE19 cells [9]; 0.5 μM co-treatment with 12 μM 7KCh): no effect
- protection of cell confluency and morphology (images) (ARPE19 cells [9]; 1 μM co-treatment with 12 μM 7KCh): slight effect; also recorded: do not have such protection effect
- protection effect at 5 μM (ARPE19 cells [9]; 5 μM co-treatment with 12 μM 7KCh): slight effect; also recorded: slight protection
- protection effect at 5 μM (D407 cells): slight effect; also recorded: not as significant comparing to sterculic acid
- effect on 7KCh-mediated mRNA induction (inflammatory response) (ARPE-19 cells [5]; 1 μM fatty acid + 8 μM 7KCh, 24 hr, FIG. 13): either ineffective or enhanced
- increase of cell viability compared to 7KCh alone treatment (ARPE19 cells [6]; 1 μM fatty acid + 15 μM 7KCh): 10%
- CONC. (μM): lowest concentration required to maintain full cell viability against 7KCh (ARPE-19 cells [10]): 10 µM
